Legend:
Carbonic anhydrase 1 = Carbonic anhydrase 1 (Homo sapiens, UniProt P00915)
Description: Inhibitory activity against human cloned isoenzyme carbonic anhydrase I (hCA I), by esterase method.

Carbonic anhydrase 2 = Carbonic anhydrase 2 (Homo sapiens, UniProt P00918)
Description: Inhibitory activity against human cloned isoenzyme carbonic anhydrase II (hCA II), by esterase method.

Carbonic anhydrase 1, sequence (P00915 whole entry): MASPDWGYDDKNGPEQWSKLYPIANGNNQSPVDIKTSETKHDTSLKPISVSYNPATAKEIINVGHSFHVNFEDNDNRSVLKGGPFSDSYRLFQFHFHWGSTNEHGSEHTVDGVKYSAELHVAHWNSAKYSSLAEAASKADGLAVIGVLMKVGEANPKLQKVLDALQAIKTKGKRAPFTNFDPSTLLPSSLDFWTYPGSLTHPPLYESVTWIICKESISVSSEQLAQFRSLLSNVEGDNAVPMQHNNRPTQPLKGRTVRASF

Ki (Carbonic anhydrase 1) | Ki (Carbonic anhydrase 2) | Structure (SMILES)
14 nM | 11 nM | COc1ccc(NS(N)(=O)=O)cc1
18 nM | 17 nM | NS(=O)(=O)Nc1ccc(I)cc1
26 nM | 19 nM | CCOC(=O)c1ccc(NS(N)(=O)=O)cc1
> 100000 nM | > 100000 nM | NS(=O)(=O)N(C1CCCCC1)C1CCCCC1
> 100000 nM | > 100000 nM | CC(C)N(C(C)C)S(N)(=O)=O
133 nM | 123 nM | NS(=O)(=O)NCc1ccccc1
173 nM | 148 nM | CCCCNS(N)(=O)=O
16 nM | 12 nM | NS(=O)(=O)Nc1ccc(O)cc1
17 nM | 21 nM | CN(C)c1ccc(NS(N)(=O)=O)cc1
149 nM | 27 nM | NS(=O)(=O)NCCSSCCNS(N)(=O)=O
13 nM |  | NS(=O)(=O)Nc1ccccc1 [PHENYLSULFAMIDE]

The next lines start with the compound.

Structure (SMILES) | Ki (Carbonic anhydrase 1) | Ki (Carbonic anhydrase 2)
NS(=O)(=O)N1CCCCCC1 | 163 nM | 131 nM
NS(=O)(=O)Nc1ccc(Br)cc1 | 23 nM | 
NS(=O)(=O)Nc1ccc(Cl)cc1 | 19 nM | 15 nM
Cc1ccc(NS(N)(=O)=O)cc1 | 15 nM | 13 nM
NS(=O)(=O)Nc1ccc([N+](=O)[O-])cc1 | 18 nM | 13 nM
NS(=O)(=O)Nc1cccc(C(=O)c2ccccc2)c1 | 62 nM | 49 nM
NS(=O)(=O)NC1CCCCC1 | 164 nM | 450 nM
NS(=O)(=O)N(Cc1ccccc1)Cc1ccccc1 | > 100000 nM | 647 nM
NS(=O)(=O)NC1C2CC3CC(C2)CC1C3 (stereo not given) | 960 nM | 890 nM
CC(C)CN(CC(C)C)S(N)(=O)=O | > 100000 nM | > 100000 nM

From ChEMBL document CHEMBL1136615, “Carbonic anhydrase inhibitors: inhibition of cytosolic isozymes I and II with sulfamide derivatives” (Bioorg Med Chem Lett, 2003)
